Measured values published in PubChem BioAssay (NCI).
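At the GI50, growth is halved. Definition used: TGI = concentration required for complete inhibition of growth.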

Legend:
Test in all cases: NCI anticancer screen, dose series, 384-well format
786-0 renal = system: 786-0 renal
A498 renal = system: A498 renal
A549 NSCLC = system: A549 NSCLC
ACHN renal = system: ACHN renal
BT-549 breast = system: BT-549 breast
CAKI-1 renal = system: CAKI-1 renal
CCRF-CEM leukemia = system: CCRF-CEM leukemia
COLO 205 colon = system: COLO 205 colon
DU-145 prostate = system: DU-145 prostate
EKVX NSCLC = system: EKVX NSCLC
HCC-2998 colon = system: HCC-2998 colon
HCT-116 colon = system: HCT-116 colon
HCT-15 colon = system: HCT-15 colon
HL-60(TB) leukemia = system: HL-60(TB) leukemia
HOP-62 NSCLC = system: HOP-62 NSCLC
HOP-92 NSCLC = system: HOP-92 NSCLC
HS 578T breast = system: HS 578T breast
HT29 colon = system: HT29 colon
IGROV1 ovarian = system: IGROV1 ovarian
K-562 leukemia = system: K-562 leukemia
KM12 colon = system: KM12 colon
LOX IMVI melanoma = system: LOX IMVI melanoma
M14 melanoma = system: M14 melanoma
MALME-3M melanoma = system: MALME-3M melanoma
MCF7 breast = system: MCF7 breast
MDA-MB-231 breast = system: MDA-MB-231 breast
MDA-MB-435 melanoma = system: MDA-MB-435 melanoma
MDA-MB-468 breast = system: MDA-MB-468 breast
MOLT-4 leukemia = system: MOLT-4 leukemia
NCI-H226 lung = system: NCI-H226 lung
NCI-H23 lung = system: NCI-H23 lung
NCI-H322M lung = system: NCI-H322M lung
NCI-H460 NSCLC = system: NCI-H460 NSCLC
NCI-H522 lung = system: NCI-H522 lung
NCI/ADR-RES ovarian = system: NCI/ADR-RES ovarian
OVCAR-3 ovarian = system: OVCAR-3 ovarian
OVCAR-4 ovarian = system: OVCAR-4 ovarian
OVCAR-5 ovarian = system: OVCAR-5 ovarian
OVCAR-8 ovarian = system: OVCAR-8 ovarian
PC-3 prostate = system: PC-3 prostate
RPMI-8226 leukemia = system: RPMI-8226 leukemia
RXF 393 renal = system: RXF 393 renal
SF-268 CNS = system: SF-268 CNS
SF-295 CNS = system: SF-295 CNS
SF-539 CNS = system: SF-539 CNS
SK-MEL-2 melanoma = system: SK-MEL-2 melanoma
SK-MEL-28 melanoma = system: SK-MEL-28 melanoma
SK-MEL-5 melanoma = system: SK-MEL-5 melanoma
SK-OV-3 ovarian = system: SK-OV-3 ovarian
SN12C renal = system: SN12C renal
SNB-19 CNS = system: SNB-19 CNS
SNB-75 CNS = system: SNB-75 CNS
SR leukemia = system: SR leukemia
SW-620 colon = system: SW-620 colon
T-47D breast = system: T-47D breast
TK-10 renal = system: TK-10 renal
U251 glioblastoma = system: U251 glioblastoma
UACC-257 melanoma = system: UACC-257 melanoma
UACC-62 melanoma = system: UACC-62 melanoma

With C[C@@H]1COCCN1c1cc(C2(S(C)(=N)=O)CC2)nc(-c2ccnc3[nH]ccc23)n1 (stereo partly drawn) as the molecule, how does the GI50 ([…]-0 renal) read?
Its GI50 is 1.82 µM.

What about the TGI (786-0 renal) of the same molecule?
The TGI was 5.72 µM.

What about the GI50 (A498 renal) of the same molecule?
Its GI50 is 0.637 µM.

And the TGI (A498 renal)?
The TGI was 2.25 µM.

What about the GI50 (A549 NSCLC) of the same molecule?
The GI50 was 3.54 µM.

And the TGI (A549 NSCLC)?
The TGI was over 44.4 µM.

What about the GI50 (ACHN renal) of the same molecule?
The GI50 was 0.71 µM.

What about the TGI (ACHN renal) of the same molecule?
The TGI was 3.6 µM.

What about the GI50 (BT-549 breast) of the same molecule?
The GI50 was 1.93 µM.

What about the TGI (BT-549 breast) of the same molecule?
The TGI was 9.01 µM.

And the GI50 (CAKI-1 renal)?
The GI50 was 2.84 µM.

And the TGI (CAKI-1 renal)?
The TGI was over 40 µM.

And the GI50 (CCRF-CEM leukemia)?
Its GI50 is 0.638 µM.

And the TGI (CCRF-CEM leukemia)?
The TGI was 1.9 µM.

What about the GI50 (COLO 205 colon) of the same molecule?
Its GI50 is 9.75 µM.

What about the TGI (COLO 205 colon) of the same molecule?
Its TGI is 31.1 µM.

And the GI50 (DU-145 prostate)?
The GI50 was 3.17 µM.

What about the TGI (DU-145 prostate) of the same molecule?
Its TGI is 14 µM.

What about the GI50 (EKVX NSCLC) of the same molecule?
Its GI50 is 4.78 µM.

What about the TGI (EKVX NSCLC) of the same molecule?
Its TGI is 19.9 µM.

What about the GI50 (HCC-2998 colon) of the same molecule?
The GI50 was 0.967 µM.

What about the TGI (HCC-2998 colon) of the same molecule?
The TGI was 3.58 µM.

What about the GI50 (HCT-116 colon) of the same molecule?
Its GI50 is 2.54 µM.

And the TGI (HCT-116 colon)?
Its TGI is over 100 µM.

And the GI50 (HCT-15 colon)?
The GI50 was 2.21 µM.

And the TGI (HCT-15 colon)?
The TGI was 13.7 µM.

What about the GI50 (HL-60(TB) leukemia) of the same molecule?
The GI50 was 1 µM.

And the TGI (HL-60(TB) leukemia)?
The TGI was 2.53 µM.

And the GI50 (HOP-62 NSCLC)?
The GI50 was 1.34 µM.

And the TGI (HOP-62 NSCLC)?
Its TGI is 3.58 µM.

And the GI50 (HOP-92 NSCLC)?
The GI50 was 2.04 µM.

What about the TGI (HOP-92 NSCLC) of the same molecule?
The TGI was over 28.4 µM.

And the GI50 (HS 578T breast)?
The GI50 was 2.45 µM.

What about the TGI (HS 578T breast) of the same molecule?
Its TGI is 12 µM.

What about the GI50 (HT29 colon) of the same molecule?
Its GI50 is 3.55 µM.

What about the TGI (HT29 colon) of the same molecule?
The TGI was 15.8 µM.

What about the GI50 (IGROV1 ovarian) of the same molecule?
Its GI50 is 2.67 µM.

What about the TGI (IGROV1 ovarian) of the same molecule?
Its TGI is 23 µM.

And the GI50 (K-562 leukemia)?
Its GI50 is 2.35 µM.

And the TGI (K-562 leukemia)?
The TGI was 6.73 µM.

What about the GI50 (KM12 colon) of the same molecule?
The GI50 was 1.63 µM.

What about the TGI (KM12 colon) of the same molecule?
Its TGI is 22.3 µM.

What about the GI50 (LOX IMVI melanoma) of the same molecule?
Its GI50 is 1.29 µM.

What about the TGI (LOX IMVI melanoma) of the same molecule?
Its TGI is 8.31 µM.

What about the GI50 (M14 melanoma) of the same molecule?
The GI50 was 1.64 µM.

And the TGI (M14 melanoma)?
The TGI was 4.36 µM.

And the GI50 (MALME-3M melanoma)?
Its GI50 is 5.67 µM.

What about the TGI (MALME-3M melanoma) of the same molecule?
The TGI was 16.8 µM.

What about the GI50 (MCF7 breast) of the same molecule?
Its GI50 is 0.615 µM.

And the TGI (MCF7 breast)?
The TGI was over 39.4 µM.

And the GI50 (MDA-MB-231 breast)?
Its GI50 is 5.68 µM.

And the TGI (MDA-MB-231 breast)?
Its TGI is over 44.6 µM.

And the GI50 (MDA-MB-435 melanoma)?
Its GI50 is 3.71 µM.

And the TGI (MDA-MB-435 melanoma)?
Its TGI is 11.3 µM.

And the GI50 (MDA-MB-468 breast)?
The GI50 was 4.8 µM.

What about the TGI (MDA-MB-468 breast) of the same molecule?
The TGI was 18.6 µM.

And the GI50 (MOLT-4 leukemia)?
Its GI50 is 1.02 µM.

What about the TGI (MOLT-4 leukemia) of the same molecule?
The TGI was 2.26 µM.

And the GI50 (NCI-H226 lung)?
Its GI50 is 8.14 µM.

And the TGI (NCI-H226 lung)?
The TGI was 46.2 µM.

What about the GI50 (NCI-H23 lung) of the same molecule?
The GI50 was 1.24 µM.

What about the TGI (NCI-H23 lung) of the same molecule?
The TGI was 3.26 µM.

And the GI50 (NCI-H322M lung)?
The GI50 was 1.11 µM.

And the TGI (NCI-H322M lung)?
Its TGI is 5.59 µM.

What about the GI50 (NCI-H460 NSCLC) of the same molecule?
The GI50 was 0.541 µM.

And the TGI (NCI-H460 NSCLC)?
The TGI was 4.87 µM.

And the GI50 (NCI-H522 lung)?
Its GI50 is 9.39 µM.

What about the TGI (NCI-H522 lung) of the same molecule?
Its TGI is 25 µM.

What about the GI50 (NCI/ADR-RES ovarian) of the same molecule?
Its GI50 is 17 µM.

And the TGI (NCI/ADR-RES ovarian)?
Its TGI is 53.1 µM.

And the GI50 (OVCAR-3 ovarian)?
The GI50 was 3.03 µM.

And the TGI (OVCAR-3 ovarian)?
Its TGI is 18.1 µM.

And the GI50 (OVCAR-4 ovarian)?
The GI50 was 2 µM.

And the TGI (OVCAR-4 ovarian)?
Its TGI is 9.93 µM.

What about the GI50 (OVCAR-5 ovarian) of the same molecule?
Its GI50 is 3.98 µM.

What about the TGI (OVCAR-5 ovarian) of the same molecule?
The TGI was 22.4 µM.

What about the GI50 (OVCAR-8 ovarian) of the same molecule?
The GI50 was 5.49 µM.

And the TGI (OVCAR-8 ovarian)?
The TGI was 18 µM.

And the GI50 (PC-3 prostate)?
Its GI50 is 5.4 µM.

What about the TGI (PC-3 prostate) of the same molecule?
The TGI was 31.3 µM.

What about the GI50 (RPMI-8226 leukemia) of the same molecule?
The GI50 was 1.4 µM.

And the TGI (RPMI-8226 leukemia)?
The TGI was 3.2 µM.

And the GI50 (RXF 393 renal)?
Its GI50 is 2.67 µM.

And the TGI (RXF 393 renal)?
The TGI was 9.58 µM.

What about the GI50 (SF-268 CNS) of the same molecule?
Its GI50 is 6.17 µM.

What about the TGI (SF-268 CNS) of the same molecule?
Its TGI is 24 µM.

What about the GI50 (SF-295 CNS) of the same molecule?
The GI50 was 2.47 µM.

What about the TGI (SF-295 CNS) of the same molecule?
Its TGI is 9.13 µM.

And the GI50 (SF-539 CNS)?
Its GI50 is 1.29 µM.

What about the TGI (SF-539 CNS) of the same molecule?
Its TGI is 5.89 µM.

And the GI50 (SK-MEL-2 melanoma)?
Its GI50 is 0.685 µM.

And the TGI (SK-MEL-2 melanoma)?
The TGI was 2.46 µM.

And the GI50 (SK-MEL-28 melanoma)?
The GI50 was 11.6 µM.

And the TGI (SK-MEL-28 melanoma)?
Its TGI is 24.8 µM.

What about the GI50 (SK-MEL-5 melanoma) of the same molecule?
Its GI50 is 3.62 µM.

And the TGI (SK-MEL-5 melanoma)?
The TGI was 12.8 µM.

What about the GI50 (SK-OV-3 ovarian) of the same molecule?
Its GI50 is 1.78 µM.

And the TGI (SK-OV-3 ovarian)?
The TGI was 18.9 µM.

What about the GI50 (SN12C renal) of the same molecule?
Its GI50 is 2.96 µM.

And the TGI (SN12C renal)?
The TGI was 17.1 µM.

And the GI50 (SNB-19 CNS)?
Its GI50 is 6.13 µM.

What about the TGI (SNB-19 CNS) of the same molecule?
Its TGI is 57.3 µM.

What about the GI50 (SNB-75 CNS) of the same molecule?
The GI50 was 4.52 µM.

And the TGI (SNB-75 CNS)?
The TGI was 14.3 µM.

And the GI50 (SR leukemia)?
Its GI50 is 0.153 µM.

What about the TGI (SR leukemia) of the same molecule?
Its TGI is 0.45 µM.

And the GI50 (SW-620 colon)?
The GI50 was 2.77 µM.

What about the TGI (SW-620 colon) of the same molecule?
The TGI was 50.4 µM.

What about the GI50 (T-47D breast) of the same molecule?
Its GI50 is 8.7 µM.

And the TGI (T-47D breast)?
Its TGI is over 43.1 µM.

And the GI50 (TK-10 renal)?
Its GI50 is 0.756 µM.

What about the TGI (TK-10 renal) of the same molecule?
The TGI was 3.58 µM.

And the GI50 (U251 glioblastoma)?
Its GI50 is 4.85 µM.

And the TGI (U251 glioblastoma)?
Its TGI is 29 µM.

And the GI50 (UACC-257 melanoma)?
Its GI50 is 13 µM.

What about the TGI (UACC-257 melanoma) of the same molecule?
The TGI was 27.5 µM.

What about the GI50 (UACC-62 melanoma) of the same molecule?
The GI50 was 3.01 µM.

And the TGI (UACC-62 melanoma)?
Its TGI is 14.4 µM.
